From PubChem BioAssay AID192 (DTP/NCI, 2004)
Values joined by “and” are separate entries in the source; they are usually repeats but may differ in a detail not shown here. Identical values can stand only once. Toxic doses and inconclusive results are not listed.

Tested on: BDF1 mice, B16 melanoma ip, median survival T/C
Test: NCI In Vivo Anticancer Drug Screen. Data for tumor model B16 Melanoma (intraperitoneal) in B6D2F1 (BDF1) mice
Settings: endpoint: median survival time, higher = longer survival
Summary of the method: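 Values are ratios of treated (T) to vehicle-control (C) measurements of survival or tumor size in tumor-bearing mice.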

[1] = dose: 12.5 mg/kg/injection, schedule: Q01DX009 (ip), vehicle: saline with Tween-80
[2] = dose: 0.37 mg/kg/injection, schedule: Q01DX009 (ip), vehicle: saline
[3] = dose: 0.75 mg/kg/injection, schedule: Q01DX009 (ip), vehicle: saline
[4] = dose: 25.0 mg/kg/injection, schedule: Q01DX009 (ip), vehicle: saline with Tween-80
[5] = dose: 50.0 mg/kg/injection, schedule: Q01DX009 (ip), vehicle: saline with Tween-80
[6] = dose: 100.0 mg/kg/injection, schedule: Q01DX009 (ip), vehicle: saline with Tween-80
[7] = dose: 200.0 mg/kg/injection, schedule: Q01DX009 (ip), vehicle: saline with Tween-80
[8] = dose: 400.0 mg/kg/injection, schedule: Q01DX009 (ip), vehicle: saline with Tween-80
[9] = dose: 25.0 mg/kg/injection, schedule: Q01DX009 (ip), vehicle: Klucel (hydroxypropylcellulose) (HPC)
[10] = dose: 50.0 mg/kg/injection, schedule: Q01DX009 (ip), vehicle: Klucel (hydroxypropylcellulose) (HPC)
[11] = dose: 100.0 mg/kg/injection, schedule: Q01DX009 (ip), vehicle: Klucel (hydroxypropylcellulose) (HPC)
[12] = dose: 200.0 mg/kg/injection, schedule: Q01DX009 (ip), vehicle: Klucel (hydroxypropylcellulose) (HPC)
[13] = dose: 400.0 mg/kg/injection, schedule: Q01DX009 (ip), vehicle: Klucel (hydroxypropylcellulose) (HPC)
[14] = dose: 100.0 mg/kg/injection, schedule: Q04DX003 (ip), vehicle: Klucel (hydroxypropylcellulose) (HPC)
[15] = dose: 400.0 mg/kg/injection, schedule: Q04DX003 (ip), vehicle: Klucel (hydroxypropylcellulose) (HPC)

SMILES: COc1cc(NS(C)(=O)=O)ccc1Nc1c2ccc(Cl)cc2nc2c(OC)cccc12
- T/C (dose: 0.38 mg/kg/injection, schedule: Q01DX009 (ip), vehicle: saline with Tween-80): 123 % of control
- T/C (dose: 0.75 mg/kg/injection, schedule: Q01DX009 (ip), vehicle: saline with Tween-80): 110 % of control
- T/C (dose: 0.8 mg/kg/injection, schedule: Q01DX005 (iv), vehicle: water): 96 % of control
- T/C (dose: 0.8 mg/kg/injection, schedule: Q04DX003 (iv), vehicle: water): 100 % of control
- T/C (dose: 1.6 mg/kg/injection, schedule: Q01DX005 (iv), vehicle: water): 104 % of control
- T/C (dose: 1.6 mg/kg/injection, schedule: Q04DX003 (iv), vehicle: water): 92 % of control
- T/C (dose: 2.3 mg/kg/injection, schedule: Q01DX009 (ip), vehicle: other): 156 % of control
- T/C (dose: 3.0 mg/kg/injection, schedule: Q01DX009 (ip), vehicle: saline with Tween-80): 152 % of control
- T/C (dose: 3.13 mg/kg/injection, schedule: Q01DX009 (ip), vehicle: saline with Tween-80): 178 % of control
- T/C (dose: 3.3 mg/kg/injection, schedule: Q01DX005 (iv), vehicle: water): 106 % of control
- T/C (dose: 3.3 mg/kg/injection, schedule: Q04DX003 (iv), vehicle: water): 96 % of control
- T/C (dose: 4.5 mg/kg/injection, schedule: Q01DX009 (ip), vehicle: other): 184 % of control
- T/C (dose: 6.25 mg/kg/injection, schedule: Q01DX009 (ip), vehicle: saline with Tween-80): 194 % of control
- T/C (dose: 6.5 mg/kg/injection, schedule: Q01DX005 (iv), vehicle: water): 109 % of control
- T/C (dose: 6.5 mg/kg/injection, schedule: Q04DX003 (iv), vehicle: water): 105 % of control
- T/C (dose: 8.0 mg/kg/injection, schedule: Q01DX009 (ip), vehicle: saline with Tween-80): 178 % of control and 185 % of control
- T/C (dose: 9.0 mg/kg/injection, schedule: Q01DX009 (ip), vehicle: other): 241 % of control
- T/C (dose: 9.0 mg/kg/injection, schedule: Q04DX003 (ip), vehicle: water): 152 % of control
- T/C (dose: 12.0 mg/kg/injection, schedule: Q01DX009 (ip), vehicle: saline with Tween-80): 190 % of control and 219 % of control
- T/C [1]: 236 % of control
- T/C (dose: 13.0 mg/kg/injection, schedule: Q04DX003 (iv), vehicle: water): 111 % of control
- T/C (dose: 18.0 mg/kg/injection, schedule: Q01DX009 (ip), vehicle: saline with Tween-80): 196 % of control
- T/C (dose: 18.0 mg/kg/injection, schedule: Q04DX003 (ip), vehicle: water): 172 % of control
- T/C (dose: 36.0 mg/kg/injection, schedule: Q04DX003 (ip), vehicle: water): 200 % of control

SMILES: FC(F)(F)c1ccc2c(c1)N(CCCN1CCN(CCN3CCOCC3)CC1)c1ccccc1S2
- T/C [2]: 97 % of control
- T/C [3]: 87 % of control
- T/C (dose: 1.5 mg/kg/injection, schedule: Q01DX009 (ip), vehicle: saline): 115 % of control
- T/C (dose: 3.0 mg/kg/injection, schedule: Q01DX009 (ip), vehicle: saline): 112 % of control

SMILES: Cn1c2c(c3ccccc3c1=O)C(=O)c1ccccc1-2
- T/C [4]: 97 % of control
- T/C [5]: 89 % of control

SMILES: O=C(O)C1CCCCC1C(=O)Nc1ccccc1C(F)(F)F (configuration not stated)
- T/C [6]: 90 % of control
- T/C [7]: 90 % of control
- T/C [8]: 90 % of control

SMILES: CC(=O)CC(=O)Nc1ccc(C)c(C)c1
- T/C (dose: 100.0 mg/kg/injection, schedule: Q01DX009 (ip), vehicle: saline): 92 % of control
- T/C (dose: 200.0 mg/kg/injection, schedule: Q01DX009 (ip), vehicle: saline): 89 % of control
- T/C (dose: 400.0 mg/kg/injection, schedule: Q01DX009 (ip), vehicle: saline): 94 % of control

SMILES: Cc1cccc(NC(=O)Nc2ccccc2Cl)c1C
- T/C [9]: 101 % of control
- T/C [10]: 101 % of control
- T/C [11]: 101 % of control

SMILES: CCCCCCn1c(O)c(C=N)c(=O)[nH]c1=O
- T/C [11]: 95 % of control
- T/C [12]: 96 % of control
- T/C [13]: 112 % of control

SMILES: CCNC1=C(N2CC2)C(=O)C(NCC)=C(N2CC2)C1=O
- T/C [2]: 112 % of control
- T/C [3]: 104 % of control and 116 % of control

SMILES: CCCCCC[C@H]([C@H](C)O)n1cnc2c(N)ncnc21
- T/C (dose: 6.25 mg/kg/injection, schedule: Q01DX009 (ip), vehicle: Klucel (hydroxypropylcellulose) (HPC)): 93 % of control
- T/C (dose: 12.5 mg/kg/injection, schedule: Q01DX009 (ip), vehicle: Klucel (hydroxypropylcellulose) (HPC)): 86 % of control
- T/C [9]: 93 % of control and 94 % of control
- T/C [10]: 93 % of control and 106 % of control
- T/C [11]: 104 % of control

SMILES: Cc1ccc(C)c(NC(=O)NC(C)C)c1
- T/C [11]: 106 % of control
- T/C [12]: 100 % of control
- T/C [13]: 103 % of control

SMILES: O=C(CC(NC(=O)OCc1ccccc1)C(=O)O)OCc1ccccc1 (configuration not stated)
- T/C [4]: 93 % of control
- T/C [5]: 104 % of control
- T/C [11]: 102 % of control
- T/C [6]: 102 % of control
- T/C [12]: 106 % of control
- T/C [7]: 87 % of control

SMILES: COC(=O)NC1CC=CCC1I (configuration not stated)
- T/C (dose: 12.5 mg/kg/injection, schedule: Q01DX009 (ip), vehicle: saline + alcohol): 109 % of control
- T/C (dose: 25.0 mg/kg/injection, schedule: Q01DX009 (ip), vehicle: saline + alcohol): 97 % of control
- T/C (dose: 50.0 mg/kg/injection, schedule: Q01DX009 (ip), vehicle: saline + alcohol): 88 % of control

SMILES: COc1ccc(C(=S)N2CCN(c3ccccc3)CC2)cc1
- T/C [1]: 87 % of control
- T/C [5]: 99 % of control
- T/C [7]: 87 % of control

SMILES: CCCCNC(C)C1(O)Cc2c(O)c3c(c(O)c2C(OC2CC(N)C(O)C(C)O2)C1)C(=O)c1c(OC)cccc1C3=O (configuration not stated)
- T/C (dose: 50.0 mg/kg/injection, schedule: Q01DX001 (ip), vehicle: water): 114 % of control and 181 % of control and 204 % of control
- T/C (dose: 100.0 mg/kg/injection, schedule: Q01DX001 (ip), vehicle: water): 114 % of control and 263 % of control and 292 % of control
- T/C (dose: 200.0 mg/kg/injection, schedule: Q01DX001 (ip), vehicle: water): 117 % of control and 217 % of control and 293 % of control
- T/C (dose: 400.0 mg/kg/injection, schedule: Q01DX001 (ip), vehicle: water): 89 % of control

SMILES: C/C(CCC(=O)O)=N\NC(N)=O
- T/C [6]: 88 % of control
- T/C [7]: 88 % of control
- T/C [8]: 100 % of control

SMILES: O=S(=O)(O)c1ccc(-c2c3nc(c(-c4ccc(S(=O)(=O)O)cc4)c4ccc([nH]4)c(-c4ccc(S(=O)(=O)O)cc4)c4nc(c(-c5ccc(S(=O)(=O)O)cc5)c5ccc2[nH]5)C=C4)C=C3)cc1
- T/C (dose: 6.25 mg/kg/injection, schedule: Q01DX009 (ip), vehicle: saline): 104 % of control
- T/C (dose: 12.5 mg/kg/injection, schedule: Q01DX009 (ip), vehicle: saline): 105 % of control
- T/C (dose: 25.0 mg/kg/injection, schedule: Q01DX009 (ip), vehicle: saline): 117 % of control
- T/C (dose: 50.0 mg/kg/injection, schedule: Q01DX009 (ip), vehicle: saline): 110 % of control

SMILES: C=C1[C@@H](O)[C@]2(O)OC[C@@]34[C@H]1[C@@H](OC(=O)C(C)CC)C(=O)O[C@@H]3C[C@H]1C(C)=CC(=O)[C@@H](O)[C@]1(C)[C@@H]24 (some centres not stated)
- T/C (dose: 0.5 mg/kg/injection, schedule: Q01DX009 (ip), vehicle: saline with Tween-80): 116 % of control
- T/C (dose: 1.0 mg/kg/injection, schedule: Q01DX009 (ip), vehicle: saline with Tween-80): 118 % of control

SMILES: C=CCOCC(O)CN(C)c1ccccc1 (configuration not stated)
- T/C (dose: 25.0 mg/kg/injection, schedule: Q04DX003 (ip), vehicle: Klucel (hydroxypropylcellulose) (HPC)): 92 % of control
- T/C (dose: 50.0 mg/kg/injection, schedule: Q04DX003 (ip), vehicle: Klucel (hydroxypropylcellulose) (HPC)): 95 % of control
- T/C [14]: 89 % of control and 90 % of control
- T/C [15]: 88 % of control

SMILES: CC1CCN(c2ccc([N+](=O)[O-])cc2)CC1
- T/C [11]: 106 % of control
- T/C [12]: 87 % of control
- T/C [13]: 96 % of control

SMILES: CCCCCCCCCCCC(=O)CC
- T/C (dose: 100.0 mg/kg/injection, schedule: Q01DX009 (ip), vehicle: other): 96 % of control
- T/C (dose: 200.0 mg/kg/injection, schedule: Q01DX009 (ip), vehicle: other): 87 % of control

SMILES: O=C(O)c1cc(-c2ccc(Cl)cc2)nc2c(-c3ccccc3)cccc12
- T/C [1]: 87 % of control
- T/C [4]: 105 % of control
- T/C [5]: 87 % of control and 94 % of control
- T/C [6]: 86 % of control
- T/C [7]: 87 % of control

SMILES: COc1cc2c(cc1OC)N(S(=O)(=O)c1ccc(C)cc1)CCCC2=O
- T/C [14]: 87 % of control
- T/C (dose: 200.0 mg/kg/injection, schedule: Q04DX003 (ip), vehicle: Klucel (hydroxypropylcellulose) (HPC)): 100 % of control
- T/C [15]: 92 % of control

SMILES: c1ccc(N/N=C2/c3ccccc3CC23OC3c2ccccc2)cc1 (configuration not stated)
- T/C [10]: 87 % of control
- T/C [11]: 96 % of control
- T/C [13]: 89 % of control
